{"source": "patent US4055640A", "about": "“Compositions and methods for controlling the growth of bacteria, fungi and algae using certain derivatives of N-(2,2-dichlorovinyl)salicylamides” (Nippon Kayaku Co., Ltd., priority 1975, dated 1977)", "key": {"[1]": {"tested_on": "Xanthomonas citri (citrus canker)", "experiment": "Exterminating test on citrus canker (Experimental Example 6)", "type": "in vivo", "settings": "Xanthomonas citri, 336 h, read-out: Effect Index, 1,000 ppm, 2 weeks after inoculation", "procedure,_shortened": "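Four-year-old potted summer orange seedlings sprayed with diluted 80% wettable powder, then needle-inoculated on leaves with Xanthomonas citri and held 24 h moist at 25 °C before greenhouse. Disease attack scored 2 weeks post-inoculation and expressed as an Effect Index.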"}, "Geotrichum candium": {"tested_on": "Geotrichum candium", "experiment": "Minimum inhibitory concentration, dilution methods (Example 14)", "type": "cell-based", "from_the_text": "(§1) Bacteriocidal activity and fungicidal activity of the active compounds of the present invention were examined by potato-dextrose agar dilution method, [2] waxman's liquid medium dilution method or [3] glucose bouillon medium dilution method. The results are shown in Table 4 below as the minimum inhibitory concentration (the minimum concentration of active compound found to produce 100% control of the test bacteria and fungi)."}, "Chaetomium globosum": {"tested_on": "Chaetomium globosum", "experiment": "Minimum inhibitory concentration, dilution methods (Example 14)", "type": "cell-based", "from_the_text": "as §1"}, "Pseudomonas fluorescens": {"tested_on": "Pseudomonas fluorescens", "experiment": "Minimum inhibitory concentration, dilution methods (Example 14)", "type": "cell-based", "from_the_text": "as §1"}, "Staphylococcus aureus": {"tested_on": "Staphylococcus aureus", "experiment": "Growth inhibition zones around treated clothes (Example 16)", "type": "cell-based", "protocol": "(§2) The emulsifiable concentrate which was prepared by Example 10 and which contained 10% of Compound No. 1 was entered to three vessels. These emulsifiable concentrates were diluted with water 500 times, 1000 times and 2000 times respectively. Emulsions were obtained. Each of silk, cotton and vinylon clothes was dipped into the three different concentrations of emulsions for 3 minutes and dried for 24 hours at room temperature. The clothes dreid were cut into a square of which a side was 1 cm long.\n(§3) Test bacteria and fungi were inoculated on the whole surfaces of the plates of potato-dextrose agar medium. The square clothes were placed on the plates of agar culture medium of potato. The inoculated bacteria and fungi were incubated at 28° C for 4 days. The width of zones in which the growth of the test bateria and fungi was inhibited in the environment of the clothes was measured."}, "Penicillium citrenum": {"tested_on": "Penicillium citrenum", "experiment": "Growth inhibition zones around treated clothes (Example 16)", "type": "cell-based", "protocol": "as §2, §3"}, "Aspergillus niger": {"tested_on": "Aspergillus niger", "experiment": "Growth inhibition zones around treated clothes (Example 16)", "type": "cell-based", "protocol": "as §2, §3"}, "Bacillus subtilis": {"tested_on": "Bacillus subtilis", "experiment": "Growth inhibition zones around treated clothes (Example 16)", "type": "cell-based", "protocol": "as §2, §3"}, "green algae": {"tested_on": "green algae", "experiment": "Degree of propagation on slime test boards (Example 19)", "type": "cell-based", "design": "key: -: no propagation; +: the area of propagation is 1 - 25% on the slime test boards.; ++: the area of propagation is 26 - 50% on the slime test boards.; +++: the area of propagation is 51 - 75% on the slime test boards.; ++++: the area of propagation is 76 - 100% on the slime test boards", "protocol": "(§4) Zero point zero two (0.02) part of active compounds in the form of 10% water soluble concentrate which was prepared by Example 13 was added into 100 parts of Waxman's liquid medium. Pieces of wood and iron (hereafter referred to as the slime test boards) were soaked into the Waxman's liquid medium. The bacteria which were gathered from circular water system were inoculated upon the Waxman's liquid medium and incubated at 27° C-34° C by shaking culture. The degree of propagation of the bacteria on the slime test boards was examined.\n(§5) The growth-inhibiting activity of active compounds against the fungi and the green algae was also examined by the same method as mentioned above.\n(§6) The degree of propagation of the bacteria, fungi or green algae on the slime test boards is defined in terms of the following symbols."}, "[2]": {"tested_on": "bacteria gathered from circular water system", "experiment": "Degree of propagation on slime test boards (Example 19)", "type": "cell-based", "design": "key: -: no propagation; +: the area of propagation is 1 - 25% on the slime test boards.; ++: the area of propagation is 26 - 50% on the slime test boards.; +++: the area of propagation is 51 - 75% on the slime test boards.; ++++: the area of propagation is 76 - 100% on the slime test boards", "protocol": "as §4, §5, §6"}, "fungi": {"tested_on": "fungi", "experiment": "Degree of propagation on slime test boards (Example 19)", "type": "cell-based", "design": "key: -: no propagation; +: the area of propagation is 1 - 25% on the slime test boards.; ++: the area of propagation is 26 - 50% on the slime test boards.; +++: the area of propagation is 51 - 75% on the slime test boards.; ++++: the area of propagation is 76 - 100% on the slime test boards", "protocol": "as §4, §5, §6"}, "[3]": {"settings": "(1) potato-dextrose agar dilution method"}, "[4]": {"settings": "(2) waxman's liquid medium dilution method"}}, "note": "Where a name gives a salt, the structure may show the parent alone.", "data": [{"smiles": "CC(=O)Oc1ccccc1C(=O)NC=C(Cl)Cl", "note": "[Compound No. 6, O-acetyl-N-(2,2-dichlorovinyl) salicylamide]", "values": [{"measurement": "pest or weed control at 1000 ppm", "setting": "[1]", "value": 96.1, "unit": "%"}]}, {"smiles": "O=C(NC=C(Cl)Cl)c1ccccc1O", "note": "[Compound No. 1, N-(β,β-dichlorovinyl) salicylamide]", "values": [{"measurement": "MIC", "setting": "Geotrichum candium; [3]", "value": 10, "unit": "µg/mL"}, {"measurement": "MIC", "setting": "Geotrichum candium; [4]", "value": 20, "unit": "µg/mL"}, {"measurement": "MIC", "setting": "Chaetomium globosum; [3]", "value": 5, "unit": "µg/mL"}, {"measurement": "MIC", "setting": "Chaetomium globosum; [4]", "value": 10, "unit": "µg/mL"}, {"measurement": "minimum inhibitory concentration", "setting": "Pseudomonas fluorescens; [3]", "value": 40, "unit": "mc g/ml"}, {"measurement": "MIC", "setting": "Pseudomonas fluorescens; Pseudomonas fluorescens, (2) waxman's liquid medium dilution method", "value": 40, "unit": "µg/mL"}, {"measurement": "width of growth inhibition zones", "setting": "Staphylococcus aureus; Cotton, 0.005 %", "value": 5, "unit": "mm"}, {"measurement": "width of growth inhibition zones", "setting": "Staphylococcus aureus; Cotton, 0.01 %", "value": 9, "unit": "mm"}, {"measurement": "width of growth inhibition zones", "setting": "Staphylococcus aureus; Cotton, 0.02 %", "value": 13, "unit": "mm"}, {"measurement": "width of growth inhibition zones", "setting": "Staphylococcus aureus; Silk, 0.005 %", "value": 5, "unit": "mm"}, {"measurement": "width of growth inhibition zones", "setting": "Staphylococcus aureus; Silk, 0.01 %", "value": 8, "unit": "mm"}, {"measurement": "width of growth inhibition zones", "setting": "Staphylococcus aureus; Silk, 0.02 %", "value": 12, "unit": "mm"}, {"measurement": "width of growth inhibition zones", "setting": "Staphylococcus aureus; Vinylon, 0.005 %", "value": 4, "unit": "mm"}, {"measurement": "width of growth inhibition zones", "setting": "Staphylococcus aureus; Vinylon, 0.01 %", "value": 7, "unit": "mm"}, {"measurement": "width of growth inhibition zones", "setting": "Staphylococcus aureus; Vinylon, 0.02 %", "value": 11, "unit": "mm"}, {"measurement": "width of growth inhibition zones", "setting": "Penicillium citrenum; Cotton, 0.005 %", "value": 5, "unit": "mm"}, {"measurement": "width of growth inhibition zones", "setting": "Penicillium citrenum; Cotton, 0.01 %", "value": 7, "unit": "mm"}, {"measurement": "width of growth inhibition zones", "setting": "Penicillium citrenum; Cotton, 0.02 %", "value": 9, "unit": "mm"}, {"measurement": "width of growth inhibition zones", "setting": "Penicillium citrenum; Silk, 0.005 %", "value": 4, "unit": "mm"}, {"measurement": "width of growth inhibition zones", "setting": "Penicillium citrenum; Silk, 0.01 %", "value": 6, "unit": "mm"}, {"measurement": "width of growth inhibition zones", "setting": "Penicillium citrenum; Silk, 0.02 %", "value": 7, "unit": "mm"}, {"measurement": "width of growth inhibition zones", "setting": "Penicillium citrenum; Vinylon, 0.005 %", "value": 3, "unit": "mm"}, {"measurement": "width of growth inhibition zones", "setting": "Penicillium citrenum; Vinylon, 0.01 %", "value": 5, "unit": "mm"}, {"measurement": "width of growth inhibition zones", "setting": "Penicillium citrenum; Vinylon, 0.02 %", "value": 7, "unit": "mm"}, {"measurement": "width of growth inhibition zones", "setting": "Aspergillus niger; Cotton, 0.005 %", "value": 6, "unit": "mm"}, {"measurement": "width of growth inhibition zones", "setting": "Aspergillus niger; Cotton, 0.01 %", "value": 8, "unit": "mm"}, {"measurement": "width of growth inhibition zones", "setting": "Aspergillus niger; Cotton, 0.02 %", "value": 11, "unit": "mm"}, {"measurement": "width of growth inhibition zones", "setting": "Aspergillus niger; Silk, 0.005 %", "value": 5, "unit": "mm"}, {"measurement": "width of growth inhibition zones", "setting": "Aspergillus niger; Silk, 0.01 %", "value": 7, "unit": "mm"}, {"measurement": "width of growth inhibition zones", "setting": "Aspergillus niger; Silk, 0.02 %", "value": 8, "unit": "mm"}, {"measurement": "width of growth inhibition zones", "setting": "Aspergillus niger; Vinylon, 0.005 %", "value": 4, "unit": "mm"}, {"measurement": "width of growth inhibition zones", "setting": "Aspergillus niger; Vinylon, 0.01 %", "value": 6, "unit": "mm"}, {"measurement": "width of growth inhibition zones", "setting": "Aspergillus niger; Vinylon, 0.02 %", "value": 8, "unit": "mm"}, {"measurement": "width of growth inhibition zones", "setting": "Bacillus subtilis; Cotton, 0.005 %", "value": 3, "unit": "mm"}, {"measurement": "width of growth inhibition zones", "setting": "Bacillus subtilis; Cotton, 0.01 %", "value": 6, "unit": "mm"}, {"measurement": "width of growth inhibition zones", "setting": "Bacillus subtilis; Cotton, 0.02 %", "value": 10, "unit": "mm"}, {"measurement": "width of growth inhibition zones", "setting": "Bacillus subtilis; Silk, 0.005 %", "value": 3, "unit": "mm"}, {"measurement": "width of growth inhibition zones", "setting": "Bacillus subtilis; Silk, 0.01 %", "value": 6, "unit": "mm"}, {"measurement": "width of growth inhibition zones", "setting": "Bacillus subtilis; Silk, 0.02 %", "value": 10, "unit": "mm"}, {"measurement": "width of growth inhibition zones", "setting": "Bacillus subtilis; Vinylon, 0.005 %", "value": 2, "unit": "mm"}, {"measurement": "width of growth inhibition zones", "setting": "Bacillus subtilis; Vinylon, 0.01 %", "value": 5, "unit": "mm"}, {"measurement": "width of growth inhibition zones", "setting": "Bacillus subtilis; Vinylon, 0.02 %", "value": 9, "unit": "mm"}]}, {"smiles": "O=C(NC=C(Cl)Cl)c1ccccc1O", "note": "[Compound No. 20, sodium salt of N-(β,β-dichlorovinyl) salicylamide]", "values": [{"measurement": "Degree of propagation", "setting": "green algae; 7th day", "value": "-"}, {"measurement": "Degree of propagation", "setting": "green algae; 14th day", "value": "-"}, {"measurement": "Degree of propagation", "setting": "green algae; 21st day", "value": "-"}, {"measurement": "Degree of propagation", "setting": "[2]; 7th day", "value": "-"}, {"measurement": "Degree of propagation", "setting": "[2]; 14th day", "value": "-"}, {"measurement": "Degree of propagation", "setting": "[2]; 21st day", "value": "-"}, {"measurement": "Degree of propagation", "setting": "fungi; 7th day", "value": "-"}, {"measurement": "Degree of propagation", "setting": "fungi; 14th day", "value": "-"}, {"measurement": "Degree of propagation", "setting": "fungi; 21st day", "value": "-"}]}]}
